{
  "source": "patent US9597338B2",
  "about": "“Shell-and-core dosage form approaching zero-order drug release” (Depomed, Inc., priority 2000, dated 2017)",
  "origin": "cited, not measured here",
  "details": "oral; doses administered with or following a meal",
  "data": [
    {"smiles": "Cc1c(O)cccc1C(=O)N[C@@H](CSc1ccccc1)[C@H](O)CN1C[C@H]2CCCC[C@H]2C[C@H]1C(=O)NC(C)(C)C", "note": "[nelfinavir]", "values": [
      {"measurement": "Area under the plasma concentration-time curve with or following a meal", "value": "two to three times greater"},
      {"measurement": "Peak plasma concentration with or following a meal", "value": "two to three times greater"}
    ]}
  ]
}
